Data taken from patent US20250237628A1, “CELL SELECTION AND/OR STIMULATION DEVICES AND METHODS OF USE” (Juno Therapeutics GmbH, priority 2019, published 2025).

Columns and labels:
CAR-T cells = assay: Intracellular caspase expression (marker of apoptosis) in thawed CAR-T cells; assay type: cell-based, human; conditions: incubated with vs without compound 63
CD4+ and CD8+ T cells [1] = assay: Intracellular cytokines following stimulation with PMA/Ionomycin and a Golgi inhibitor; assay type: cell-based, human; conditions: engineered CD8+ and CD4+ T cells produced in presence of Compound 63
CD4+ and CD8+ T cells [2] = assay: Viable cells in engineered T cell composition over the process; assay type: cell-based, human; conditions: presence vs absence of compound 63 in the process
Experimental: (§1) CD4+ and CD8+ T cells were isolated by immunoaffinity-based enrichment from leukapheresis samples from human donor subjects. […] The T cells cultured with our without Compound 63 were incubated overnight (approximately 24 hr) at 37° C., and were then transduced in serum-free culture media with our without Compound 63 ([…]) with a lentiviral vector encoding an anti-CD19 CAR. […] Following transduction, the cells were incubated in serum free media without recombinant cytokines (basal media) and with or without Compound 63 (1 mM) and allowed to incubate at about 37.0° C. in an incubator for up to 96 hours after initiation of the stimulation with the anti-CD3/anti-CD28 oligomeric stimulatory reagent (until day 5 of the process). […] The cryofrozen engineered CD4+ and CD8+ T cells were thawed, and T cells were assessed for intracellular S6 phosphorylation, a ribosomal protein and marker of mTOR inhibition, and co-stained for surface expression of CD4 or CD8 and for CCR7 and CD45RA as markers of memory subsets. pS6 expression in live CD8+ T cells by memory subsets was shown by the expression of CCR7 and CD45RA as shown in FIG. 16A. As shown, incubation with Compound 63 decreased the mean fluorescence intensity of stimulated memory T cell subsets, […], indicating an inhibition of mTOR, while having no significant effect on the percentage or total number of viable cells over time.

mTOR = assay: Intracellular S6 phosphorylation (marker of mTOR inhibition) in engineered T cells; assay type: cell-based, human; conditions: live CD8+ T cells, Temra, Tem subsets; cells produced with vs without Compound 63
Experimental: as §1

CD4+ and CD8+ T cells [3] = assay: Surface expression of CD27 and CCR7 by flow cytometry (phenotypic subset profile); assay type: cell-based, human; conditions: thawed
anti-CD19 CAR T cells = assay: Long-term stimulation over 12 days with anti-idiotype antibody beads, expansion and survival; assay type: cell-based, human; conditions: anti-ID beads, cells produced in presence vs absence of compound 63
Experimental: CD4+ and CD8+ T cells were isolated by immunoaffinity-based enrichment from leukapheresis samples from human donor subjects. At day 1, isolated CD4+ and CD8+ T cells were mixed 1:1 and stimulated with an anti-CD3/anti-CD28 oligomeric stimulatory reagent generated as described in Example 1 in serum-free media supplemented with recombinant IL-2 (100 IU/mL), recombinant IL-7 (600 IU/mL), and recombinant IL-15 (100 IU/mL) with or without 1 μM of 2-(3-hydroxyphenyl)-9-(2-isopropylphenyl)-8-oxo-8,9-dihydro-7H-purine-6-carboxamide (Compound 63). The T cells cultured with our without Compound 63 were incubated overnight (approximately 24 hr) at 37° C., and were then transduced in serum-free culture media with our without Compound 63 ([…]) with a lentiviral vector encoding an anti-CD19 CAR. The CAR contained an scFv antigen-binding domain specific for CD19 (derived from FMC63), a CD28 transmembrane region, a 4-1BB costimulatory signaling region, and a CD3-zeta derived intracellular signaling domain. […]
To further assess the functional activity of the cells, the generated T cell compositions were stimulated long-term over 12 days with beads conjugated with an anti-idiotype (ID) antibody against the anti-CD19 CAR, and expansion and survival of the cells were monitored (FIG. 17F, left panel) and total expansion metric calculated by area under the growth curve (FIG. 17F, right panel, AUC).

[4] = biological target: Strep-Tactin® (mutein streptavidin, e.g. SEQ ID NO: 4) (Streptomyces avidinii, UniProt P22629, E68V/S69T/V71R); conditions: background statement, no experiment described; read-out: KD of binding to Strep-Tactin®; cited from earlier work
Strep-Tactin® (mutein streptavidin, e.g. SEQ ID NO: 4), sequence (P22629 other isoform, or with tags, fused parts or gaps E68V/S69T/V71R): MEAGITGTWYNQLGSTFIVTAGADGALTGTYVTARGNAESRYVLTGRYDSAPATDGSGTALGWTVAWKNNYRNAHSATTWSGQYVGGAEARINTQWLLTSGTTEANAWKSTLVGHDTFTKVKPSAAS

With CC(C)c1ccccc1-n1c(=O)[nH]c2c(C(N)=O)nc(-c3cccc(O)c3)nc21 [Compound 63, 2-(3-hydroxyphenyl)-9-(2-isopropylphenyl)-8-oxo-8,9-dihydro-7H-purine-6-carboxamide] the intracellular caspase expression (CAR-T cells) was “less intracellular caspase expression”, the “level of intracellular cytokines IL2, IFNg, or TNF” value (CD4+ and CD8+ T cells [1]) was “substantially improved” and the percent viable cells (CD4+ and CD8+ T cells [2]) was “did not impact”. For the same compound, the total live cells (CD4+ and CD8+ T cells [2]) was “did not impact”, the “mean fluorescence intensity of pS6 in memory T cell subsets” value (mTOR) was “decreased” and the “phenotypic subset profile by CD27 and/or CCR7 expression” value (CD4+ and CD8+ T cells [3]) was “did not substantially alter”. The “function (expansion) following long-term CAR-specific stimulation” value (anti-CD19 CAR T cells) was “improved function”.
For WSHPQFEK [Strep-Tag® II], the Kd [4] is given as about 1000 nM.
